Consider 23 compounds from patent US20060063759A1, “Tricyclic steroid hormone nuclear receptor modulators” (priority 2002, published 2006).

A value given as a limit tells only on which side of the number the result lay.

One experiment concerns the target T1, glucocorticoid receptor (Homo sapiens, UniProt P04150).
T1 construct: containing 50-200 ug of A549 cell extract and 1.86 nM [^3H]-dexamethasone; host or cells: A549 human lung epithelial cells (sonicated cell extract)
T1 sequence (P04150 1-777): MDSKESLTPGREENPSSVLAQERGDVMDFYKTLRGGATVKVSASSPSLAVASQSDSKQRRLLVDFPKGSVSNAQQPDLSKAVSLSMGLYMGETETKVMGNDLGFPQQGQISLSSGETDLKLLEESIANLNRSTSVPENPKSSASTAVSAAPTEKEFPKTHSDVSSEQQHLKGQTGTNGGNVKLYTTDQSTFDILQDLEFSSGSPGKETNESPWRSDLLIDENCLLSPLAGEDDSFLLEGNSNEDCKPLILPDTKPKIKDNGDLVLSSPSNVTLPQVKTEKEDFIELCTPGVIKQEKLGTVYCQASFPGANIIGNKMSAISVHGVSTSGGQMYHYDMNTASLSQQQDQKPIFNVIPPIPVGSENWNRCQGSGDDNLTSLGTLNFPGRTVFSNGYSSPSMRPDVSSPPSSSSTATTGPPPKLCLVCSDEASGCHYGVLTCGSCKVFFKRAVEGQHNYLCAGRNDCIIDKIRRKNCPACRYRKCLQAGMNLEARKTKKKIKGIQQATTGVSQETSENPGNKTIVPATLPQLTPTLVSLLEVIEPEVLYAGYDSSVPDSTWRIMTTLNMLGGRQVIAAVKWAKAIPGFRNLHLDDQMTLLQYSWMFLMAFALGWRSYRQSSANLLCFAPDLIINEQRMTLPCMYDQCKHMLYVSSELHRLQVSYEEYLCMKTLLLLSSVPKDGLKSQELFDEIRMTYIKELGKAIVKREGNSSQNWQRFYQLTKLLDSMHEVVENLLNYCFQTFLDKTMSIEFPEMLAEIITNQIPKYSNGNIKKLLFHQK
Briefly: Glucocorticoid Receptor Binding Assay ([3H]-dexamethasone, A549 cell extract). The note with it: [3H]-dexamethasone binding, read-out: GR Ki. In a few lines: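 A549 cell extract (50–200 ug) incubated with 1.86 nM [3H]-dexamethasone and test compound for 16 h at 4 °C in Tris-HCl pH 7.2 buffer with glycerol and molybdate. Unbound radioligand removed by dextran-coated charcoal, then supernatant bound counts measured by scintillation.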

A further experiment deals with T2, human MR (Homo sapiens, UniProt P08235).
T2 construct: The full length human MR gene is cloned from a human kidney or human brain cDNA library; His tag from the pAcHLT vector (own knowledge); made in house; host or cells: Sf9 insect cells (baculovirus, pAcHLT transfer vector)
T2 sequence (P08235 1-984): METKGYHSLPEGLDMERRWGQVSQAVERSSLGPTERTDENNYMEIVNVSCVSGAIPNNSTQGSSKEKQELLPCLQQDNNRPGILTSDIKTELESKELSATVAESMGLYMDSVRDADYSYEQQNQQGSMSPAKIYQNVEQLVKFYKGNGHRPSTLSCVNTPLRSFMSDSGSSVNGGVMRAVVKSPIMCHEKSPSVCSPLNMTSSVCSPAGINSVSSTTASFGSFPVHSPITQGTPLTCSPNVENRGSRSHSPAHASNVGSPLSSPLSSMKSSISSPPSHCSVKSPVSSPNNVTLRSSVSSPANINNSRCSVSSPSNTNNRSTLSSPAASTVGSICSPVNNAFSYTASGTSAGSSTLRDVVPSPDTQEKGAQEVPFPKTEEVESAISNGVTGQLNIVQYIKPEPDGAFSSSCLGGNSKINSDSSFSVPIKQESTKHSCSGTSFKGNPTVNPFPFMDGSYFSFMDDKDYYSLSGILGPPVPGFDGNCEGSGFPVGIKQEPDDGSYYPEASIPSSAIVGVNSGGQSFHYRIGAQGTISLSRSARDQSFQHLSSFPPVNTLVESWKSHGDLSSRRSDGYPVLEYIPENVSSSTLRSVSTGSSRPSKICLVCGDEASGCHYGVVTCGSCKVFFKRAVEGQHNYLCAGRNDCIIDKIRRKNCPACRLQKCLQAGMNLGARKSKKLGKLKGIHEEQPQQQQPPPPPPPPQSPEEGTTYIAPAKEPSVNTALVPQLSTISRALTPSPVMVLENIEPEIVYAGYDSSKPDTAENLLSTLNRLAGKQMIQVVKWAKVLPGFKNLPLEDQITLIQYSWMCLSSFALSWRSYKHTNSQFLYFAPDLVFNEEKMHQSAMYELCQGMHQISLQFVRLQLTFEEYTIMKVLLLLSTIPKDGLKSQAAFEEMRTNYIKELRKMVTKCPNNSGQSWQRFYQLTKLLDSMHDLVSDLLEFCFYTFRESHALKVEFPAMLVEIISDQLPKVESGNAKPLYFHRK
Nature of the experiment: Mineralocorticoid Receptor Binding Assay ([3H]-aldosterone). As to conditions: [3H]-aldosterone binding, human MR expressed in Sf9 cells; read-out: MR Ki. The procedure, abridged:
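Lysate supernatant of Sf9 cells expressing full-length human MR (20-25 μg protein) was incubated with 0.5 nM [3H]-aldosterone and test compound in molybdate/Tris/phosphate/glycerol buffer, pH 7.5, ~16 h at 4 °C. Bound ligand was filtered and counted by scintillation; IC50 is the concentration halving [3H]-aldosterone binding.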

As for `COc1ccc2c(c1)CCc1ccccc1C2=Cc1cccc(NS(C)(=O)=O)c1` [Example 161, N-[3-(2-Methoxy-10,11-dihydro-dibenzo[a,d]cyclohepten-5-ylidenemethyl)-phenyl]-methanesulfonamide], the inhibitory constant (Ki) on glucocorticoid receptor and at human MR was less than 500 nM in each case.

For the compound `COc1cc2c(cc1OC)C(=Cc1cccc(NS(C)(=O)=O)c1)c1ccccc1CC2` [Example 170(a), N-[3-(2,3-Dimethoxy-10,11-dihydro-dibenzo[a,d]cyclohepten-5-ylidenemethyl)-phenyl]-methanesulfonamide], the Ki on glucocorticoid receptor was less than 1000 nM; at human MR, less than 500 nM.

On to `COc1cc2c(cc1OC)C(=Cc1cccc(NS(C)(=O)=O)c1)c1ccccc1CC2` [Example 170(b), N-[3-(2,3-Dimethoxy-10,11-dihydro-dibenzo[a,d]cyclohepten-5-ylidenemethyl)-phenyl]-methanesulfonamide], for which the Ki at glucocorticoid receptor and on human MR was less than 500 nM in each case.

Turning to `FC(F)(F)c1ccccc1C=C1c2ccccc2CCc2cc(Cl)ccc21` [Example 174, 2-Chloro-5-(2-trifluoromethyl-benzylidene)-10,11-dihydro-5H-dibenzo[a,d]cycloheptene], the Ki on glucocorticoid receptor was less than 1000 nM; at human MR, less than 500 nM.

Consider `Cc1ccccc1C=C1c2ccccc2CCc2cc(Cl)ccc21` [Example 175, 2-Chloro-5-(2-methyl-benzylidene)-10,11-dihydro-5H-dibenzo[a,d]cycloheptene], for which the Ki on glucocorticoid receptor is less than 10000 nM; on human MR it was less than 500 nM.

Regarding `Cc1cccc(C=C2c3ccccc3CCc3cc(Cl)ccc32)c1` [Example 177, 2-Chloro-5-(3-methyl-benzylidene)-10,11-dihydro-5H-dibenzo[a,d]cycloheptene], the inhibition constant Ki is less than 1000 nM at glucocorticoid receptor and less than 500 nM at human MR.

`Oc1ccc(C=C2c3ccccc3CCc3cc(Cl)ccc32)cc1` [Example 180, 4-(2-Chloro-10,11-dihydro-dibenzo[a,d]cyclohepten-5-ylidenemethyl)-phenol]: the Ki was less than 1000 nM at glucocorticoid receptor and less than 500 nM at human MR.

Regarding `Oc1cccc(C=C2c3ccc(Cl)cc3CCc3cc(Cl)ccc32)c1` [Example 183, 3-(2,8-Dichloro-10,11-dihydro-dibenzo[a,d]cyclohepten-5-ylidenemethyl)-phenol], the Ki at glucocorticoid receptor and on human MR was less than 500 nM each time.

Take `Oc1cccc(CC2c3ccccc3CCc3c(F)cccc32)c1` (stereo not shown) [Example 186, 3-(1-Fluoro-10,11-dihydro-5H-dibenzo[a,d]cyclohepten-5-ylmethyl)-phenol]: the Ki at glucocorticoid receptor and at human MR was less than 500 nM in each case.

As for `CS(=O)(=O)Nc1cccc(CC2c3ccccc3CCc3c(F)cccc32)c1` (stereo not shown) [Example 187, N-[3-(1-Fluoro-10,11-dihydro-5H-dibenzo[a,d]cyclohepten-5-ylmethyl)-phenyl]-methanesulfonamide], the inhibitory constant (Ki) at glucocorticoid receptor and on human MR was less than 500 nM each time.

For the compound `CS(=O)(=O)Nc1cccc(CC2c3ccccc3CCc3ccc(Cl)cc32)c1` (stereo not shown) [Example 189, N-[3-(3-Chloro-10,11-dihydro-5H-dibenzo[a,d]cyclohepten-5-ylmethyl)-phenyl]-methanesulfonamide], the Ki at glucocorticoid receptor and at human MR was less than 500 nM in each case.

Take `CS(=O)(=O)Nc1cccc(C=C2c3ccc(O)cc3CCc3cc(O)ccc32)c1` [Example 192, N-[3-(2,8-Dihydroxy-10,11-dihydro-dibenzo[a,d]cyclohepten-5-ylidenemethyl)-phenyl]-methanesulfonamide]: the Ki at glucocorticoid receptor and at human MR was less than 500 nM throughout.

For the compound `COc1ccc2c(c1)CCc1cc(OC)ccc1C2=Cc1cccc(O)c1` [Example 193, 3-(2,8-Dimethoxy-10,11-dihydro-dibenzo[a,d]cyclohepten-5-ylidenemethyl)-phenol], the Ki at glucocorticoid receptor and at human MR was less than 500 nM throughout.

With `Oc1cccc(C=C2c3ccc(O)cc3CCc3cc(O)ccc32)c1` [Example 194, 5-(3-Hydroxy-benzylidene)-10,11-dihydro-5H-dibenzo[a,d]cycloheptene-2,8-diol], the Ki on glucocorticoid receptor and at human MR was less than 500 nM throughout.

For `CS(=O)(=O)Nc1cccc(/C=C2\c3ccccc3CCc3cc(OCCN4CCOCC4)ccc32)c1` [Example 196, N-{3-[2-(2-Morpholin-4-yl-ethoxy)-10,11-dihydro-dibenzo[a,d]cyclohepten-5-ylidenemethyl]-phenyl}-methanesulfonamide], the Ki at glucocorticoid receptor and on human MR was less than 500 nM each time.

For `CS(=O)(=O)Nc1cccc(C=C2c3cccc(F)c3CCc3c(F)cccc32)c1` [Example 201, N-[3-(1,9-Difluoro-10,11-dihydro-dibenzo[a,d]cyclohepten-5-ylidenemethyl)-phenyl]-methanesulfonamide], the inhibition constant Ki at glucocorticoid receptor and at human MR was less than 500 nM in each case.

With `CS(=O)(=O)Nc1cccc(C=C2c3ccccc3CCc3c(Cl)cccc32)c1` [Example 205(b), N-[3-(1-Chloro-10,11-dihydro-dibenzo[a,d]cyclohepten-5-ylidenemethyl)-phenyl]-methanesulfonamide], the Ki at glucocorticoid receptor and on human MR was less than 500 nM throughout.

Take `CCS(=O)(=O)Nc1cccc(C=C2c3ccccc3CCc3c(Cl)cccc32)c1` [Example 208(b), Ethanesulfonic acid [3-(1-chloro-10,11-dihydro-dibenzo[a,d]cyclohepten-5-ylidenemethyl)-phenyl]-amide]: the Ki at glucocorticoid receptor and at human MR was less than 500 nM in each case.

In the case of `O=c1[nH]c2cc(C=C3c4ccccc4CCc4ccccc43)ccc2o1` [Example 216, 5-(10,11-Dihydro-dibenzo[a,d]cyclohepten-5-ylidenemethyl)-3H-benzooxazol-2-one], the Ki at glucocorticoid receptor and on human MR was less than 500 nM throughout.

Take `C(=C1c2ccccc2CCc2ccccc21)c1ccc2ocnc2c1` [Example 217, 5-(10,11-Dihydro-dibenzo[a,d]cyclohepten-5-ylidenemethyl)-benzooxazole]: the values for the Ki on glucocorticoid receptor and on human MR were less than 10000 nM and less than 500 nM, respectively.

Consider `Cc1nc2cc(C=C3c4ccccc4CCc4ccccc43)ccc2o1` [Example 218, 5-(10,11-Dihydro-dibenzo[a,d]cyclohepten-5-ylidenemethyl)-2-methyl-benzooxazole], for which the Ki at glucocorticoid receptor was less than 1000 nM; on human MR it was less than 500 nM.

Consider `C(=C1c2ccccc2CCc2ccccc21)c1ccc2cc[nH]c2c1` [Example 219, 6-(10,11-Dihydro-dibenzo[a,d]cyclohepten-5-ylidenemethyl)-1H-indole], for which the results for the Ki on glucocorticoid receptor and on human MR were less than 1000 nM and less than 500 nM, respectively.

Take `C(=C1c2ccccc2CCc2ccccc21)c1cccc2[nH]ccc12` [Example 220, 4-(10,11-Dihydro-dibenzo[a,d]cyclohepten-5-ylidenemethyl)-1H-indole]: the results for the Ki at glucocorticoid receptor and on human MR were less than 10000 nM and less than 500 nM, respectively.

For orientation: Ki means the equilibrium dissociation constant of an inhibitor or competing ligand from its target.
